# Assay results taken from patent USRE47689E1, “Compounds for treating spinal muscular atrophy” (PTC Therapeutics, Inc., priority 2011, dated 2019).
# Legend:
# [1] = tested on: SMN2 minigene (full length SMN2 minigene mRNA containing SMN2 exon 7); assay: SMN2 minigene mRNA splicing RT-qPCR assay in cultured cells; format: cell-based, human; settings: Homo sapiens, HEK293-H; HEK293H cells stably transfected with SMN2-A minigene; 24 hours; 7-point concentration curve; 1.5-fold relative to vehicle-treated cells; read-out: EC1.5x for production of full length SMN2 mRNA
# In short: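 HEK293H cells stably carrying the SMN2-A minigene treated 24 h at 37° C with compound (DMSO, 200× stock), then lysed. Multiplex RT-qPCR (SMN primers 0.4 μM final; 40 cycles) measures full-length exon 7-containing minigene mRNA, normalized to GAPDH and to vehicle; EC1.5x derived and binned by stars.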
# Smn protein = Smn protein assay in cultured cells (SMN HTRF); format: cell-based, human; settings: 48 hours; for EC1.5x (concentration giving 1.5-fold Smn protein increase): SMA Type 1 patient fibroblast cells (GM03813), 7-point concentration curve, SMN HTRF, concentration producing 1.5 times Smn protein vs DMSO vehicle control, read-out: EC1.5x for Smn protein expression; for maximum fold (Fold) increase of Smn protein: SMA patient fibroblast cells, 7-point concentration data, fold increase relative to vehicle control (SMN HTRF)
# In short: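 Lysates in RIPA with protease inhibitors are incubated overnight at room temperature with HTRF anti-SMN antibodies. EC1.5x is derived from fold increase in ΔF over vehicle.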
melting point,Structure (SMILES),EC (1.5-fold) [1] [µM],EC1.5x (concentration giving 1.5-fold Smn protein increase) (Smn protein) [nM],maximum fold (Fold) increase of Smn protein (Smn protein)
185 to 191 °C,"Cc1cn2cc(-c3cc4ccc(OC5CCN(C(C)C)CC5)cc4oc3=O)nc2c(C)n1 [Compound 901, 3-(6,8-dimethylimidazo[1,2-a]pyrazin-2-yl)-7-{[1-(propan-2-yl)piperidin-4-yl]oxy}-2H-chromen-2-one]",< 0.1,< 300,***** (fold increase >1.65)
217 to 220 °C,"Cc1nc(Cl)cn2cc(-c3cc4ccc(N5CCN(C)CC5)cc4oc3=O)nc12 [Compound 764, 3-(6-chloro-8-methylimidazo[1,2-a]pyrazin-2-yl)-7-(4-methylpiperazin-1-yl)-2H-chromen-2-one]",< 0.1,–,** (fold increase between >1.2 and ≤1.35)
253 to 257 °C,"Cc1cc2cc(-c3cc4ccc(N5CCN[C@@H](C)C5)cc4oc3=O)oc2c(C)n1 [Compound 804, 3-(5,7-dimethylfuro[2,3-c]pyridin-2-yl)-7-[(3S)-3-methylpiperazin-1-yl]-2H-chromen-2-one]",< 0.1,< 300,***** (fold increase >1.65)
268 to 274 °C,"Cc1cn2cc(-c3cc4ccc(N5CCN(C6CCC6)CC5)cc4oc3=O)nc2cn1 [Compound 838, 7-(4-cyclobutylpiperazin-1-yl)-3-(6-methylimidazo[1,2-a]pyrazin-2-yl)-2H-chromen-2-one]",< 0.1,< 300,***** (fold increase >1.65)
217 to 220 °C,"Cc1cn2cc(-c3cc4ccc(N5CC[C@H](NC(C)C)C5)cc4oc3=O)cc2c(C)n1 [Compound 725, 3-(1,3-dimethylpyrrolo[1,2-a]pyrazin-7-yl)-7-[(3S)-3-(propan-2-ylamino)pyrrolidin-1-yl]-2H-chromen-2-one]",< 0.1,300 to 1000,*** (fold increase between >1.35 and ≤1.5)
155 to 158 °C,"Cc1cn2cc(-c3cc4ccc(N5CC[C@@H](N(C)C)C5)cc4oc3=O)cc2c(C)n1 [Compound 708, 7-[(3R)-3-(dimethylamino)pyrrolidin-1-yl]-3-(1,3-dimethylpyrrolo[1,2-a]pyrazin-7-yl)-2H-chromen-2-one]",< 0.1,–,** (fold increase between >1.2 and ≤1.35)
143 to 147 °C,"Cc1cn2cc(-c3cc4ccc(CCCNCc5ccccc5)cc4oc3=O)nc2c(C)n1 [Cpd 933, 7-[3-(benzylamino)propyl]-3-(6,8-dimethylimidazo[1,2-a]pyrazin-2-yl)-2H-chromen-2-one]",< 0.1,–,* (maximum fold increase of ≤1.2)
200 to 205 °C,"Cc1nc2ccc(-c3cc4ccc(N5CCNCC5)cc4oc3=O)cc2o1 [Compound 695, 3-(2-methyl-1,3-benzoxazol-6-yl)-7-(piperazin-1-yl)-2H-chromen-2-one]",< 0.1,–,*** (fold increase between >1.35 and ≤1.5)
230 to 234 °C,"Cc1cn2cc(-c3cc4ccc(N5CC[C@H](N(C)C)C5)cc4oc3=O)ccc2n1 [Compound 717, 7-[(3S)-3-(dimethylamino)pyrrolidin-1-yl]-3-(2-methylimidazo[1,2-a]pyridin-6-yl)-2H-chromen-2-one]",0.3 to 1,–,*** (fold increase between >1.35 and ≤1.5)

# The next lines start with the molecule.
Structure (SMILES),melting point,EC (1.5-fold) [1] [µM],EC1.5x (concentration giving 1.5-fold Smn protein increase) (Smn protein) [nM],maximum fold (Fold) increase of Smn protein (Smn protein)
"Cc1cn2cc(-c3cc4ccc(N5C[C@@H]6C[C@H]5CN6)cc4oc3=O)nc2cn1 [Compound 623, 7-[(1S,4S)-2,5-diazabicyclo[2.2.1]hept-2-yl]-3-(6-methylimidazo[1,2-a]pyrazin-2-yl)-2H-chromen-2-one]",225 to 227 °C,< 0.1,300 to 1000,*** (fold increase between >1.35 and ≤1.5)
"COc1cc(-c2cc3ccc(N4CCN[C@@H](C)C4)cc3oc2=O)ccc1C [Compound 575, 3-(3-methoxy-4-methylphenyl)-7-[(3S)-3-methylpiperazin-1-yl]-2H-chromen-2-one]",166 to 170 °C,0.3 to 1,–,* (maximum fold increase of ≤1.2)
"Cc1cc(C)c2nc(-c3cc4ccc(N5CCN(C)CC5)cc4oc3=O)cn2c1 [Compound 261, 3-(6,8-dimethylimidazo[1,2-a]pyridin-2-yl)-7-(4-methylpiperazin-1-yl)-2H-chromen-2-one]",232 to 238 °C,0.3 to 1,–,** (fold increase between >1.2 and ≤1.35)
"O=c1oc2cc(CN3CCCCC3)ccc2cc1-c1nc2c(Cl)cccc2s1 [Compound 60, 3-(4-chloro-1,3-benzothiazol-2-yl)-7-(piperidin-1-ylmethyl)-2H-chromen-2-one]",191 to 195 °C,1 to 3,–,** (fold increase between >1.2 and ≤1.35)
"O=c1oc2cc(N3CCN(CCO)CC3)ccc2cc1-c1cc2ccccn2n1 [Compound 190, 7-[4-(2-hydroxyethyl)piperazin-1-yl]-3-(pyrazolo[1,5-a]pyridin-2-yl)-2H-chromen-2-one]",201 to 205 °C,1 to 3,–,** (fold increase between >1.2 and ≤1.35)
"C[C@@H]1CN(c2ccc3cc(-c4cn5cccc(Cl)c5n4)c(=O)oc3c2)C[C@H](C)N1 [Compound 120, 3-(8-chloroimidazo[1,2-a]pyridin-2-yl)-7-[(3R,5S)-3,5-dimethylpiperazin-1-yl]-2H-chromen-2-one]",286 °C (dec.),< 0.1,< 300,**** (fold increase between >1.5 and ≤1.65)
"Cc1nn2cc(-c3cc4ccc(N5CCN[C@H](C)C5)cc4oc3=O)nc2s1 [Compound 483, 3-(2-methylimidazo[2,1-b][1,3,4]thiadiazol-6-yl)-7-[(3R)-3-methylpiperazin-1-yl]-2H-chromen-2-one]",206 to 210 °C,0.1 to 0.3,1000 to 3000,*** (fold increase between >1.35 and ≤1.5)
"CN1CCCN(c2cc(F)c3cc(-c4cn5cccnc5n4)c(=O)oc3c2)CC1 [Compound 335, 5-fluoro-3-(imidazo[1,2-a]pyrimidin-2-yl)-7-(4-methyl-1,4-diazepan-1-yl)-2H-chromen-2-one]",300 to 302 °C,0.1 to 0.3,1000 to 3000,*** (fold increase between >1.35 and ≤1.5)
"CCN(CC)Cc1ccc2cc(-c3nc4c(Cl)cccc4s3)c(=O)oc2c1 [Compound 58, 3-(4-chloro-1,3-benzothiazol-2-yl)-7-[(diethylamino)methyl]-2H-chromen-2-one]",147 to 151 °C,1 to 3,300 to 1000,**** (fold increase between >1.5 and ≤1.65)
"CN1CCN(c2ccc3cc(-c4cn5cc(F)cc(F)c5n4)c(=O)oc3c2)CC1 [Compound 522, 3-(6,8-difluoroimidazo[1,2-a]pyridin-2-yl)-7-(4-methylpiperazin-1-yl)-2H-chromen-2-one]",232 to 238 °C,0.3 to 1,–,* (maximum fold increase of ≤1.2)
"Cc1cn2cc(-c3cc4ccc(N5CCN(C)CC5)cc4oc3=O)ccc2n1 [Compound 678, 3-(2-methylimidazo[1,2-a]pyridin-6-yl)-7-(4-methylpiperazin-1-yl)-2H-chromen-2-one]",235 to 238 °C,< 0.1,< 300,***** (fold increase >1.65)
"CN1CCN(c2ccc3cc(-c4cn5cccc(C6CC6)c5n4)c(=O)oc3c2)CC1 [Compound 244, 3-(8-cyclopropylimidazo[1,2-a]pyridin-2-yl)-7-(4-methylpiperazin-1-yl)-2H-chromen-2-one]",198 to 202 °C,0.3 to 1,–,* (maximum fold increase of ≤1.2)
"C[C@H]1CN(c2ccc3cc(-c4ccc5c(c4)OCO5)c(=O)oc3c2)CCN1 [Compound 489, 3-(1,3-benzodioxol-5-yl)-7-[(3S)-3-methylpiperazin-1-yl]-2H-chromen-2-one]",134 to 136 °C,3 to 30,–,* (maximum fold increase of ≤1.2)
"CN(C)[C@H]1[C@@H]2CN(c3ccc4cc(-c5cn6ccsc6n5)c(=O)oc4c3)C[C@@H]21 [Compound 437, 7-[(1R,5S,6s)-6-(dimethylamino)-3-azabicyclo[3.1.0]hex-3-yl]-3-(imidazo[2,1-b][1,3]thiazol-6-yl)-2H-chromen-2-one]",233 to 235 °C,1 to 3,–,** (fold increase between >1.2 and ≤1.35)
